The values below are quoted from earlier work in patent US20110034478A1, “Oral Pharmaceutical Compositions in a Solid Dispersion Comprising Preferably Posaconazole and HPMCAs” (Schering-Plough Corporation, priority 2008, published 2011).

As usually defined, the pKa is the pH at which an ionisable group is half protonated.

Assay in data set [1]: not given
This is another data set of the same source.

On to `CCC(C)n1ncn(-c2ccc(N3CCN(c4ccc(OC[C@H]5CO[C@](Cn6cncn6)(c6ccc(Cl)cc6Cl)O5)cc4)CC3)cc2)c1=O` (mixture of isomers) [Itraconazole], for which the pKa was 3.7. Moreover, the “solubility in water” value in data set [1] is listed as “practically insoluble”. Turning to `CC(C)N1CCN(c2ccc(OC[C@H]3CO[C@](Cn4cncn4)(c4ccc(Cl)cc4Cl)O3)cc2)CC1` (racemic) [Terconazole], in data set [1], the solubility in water is less than 0.1 mg/mL. Turning to `CC(C(=O)Nc1cc(-c2ccccc2)nn1-c1ccccc1)N(C)C` (stereo not shown) [Difenamizole], the “solubility in water” value in data set [1] is listed as “practically insoluble”. For the compound `OC(Cn1cncn1)(Cn1cncn1)c1ccc(F)cc1F` [Fluconazole], the solubility in water entry in data set [1] is given as “about 1 ug/ml”.

With `N#Cc1ccc(C(c2ccc(C#N)cc2)n2cncn2)cc1` [Letrozole], in data set [1], the “solubility in water” value was “practically insoluble”. As for `CCC(C)n1ncn(-c2ccc(N3CCN(c4ccc(OCC5CO[C@](Cn6cncn6)(c6ccc(F)cc6F)O5)cc4)CC3)cc2)c1=O` (stereo partly shown) [Saperconazole], the “solubility in water” value in data set [1] was “poorly soluble”.
